Target: T1, Androgen receptor (Homo sapiens, UniProt P10275)
T1 sequence (P10275 whole entry): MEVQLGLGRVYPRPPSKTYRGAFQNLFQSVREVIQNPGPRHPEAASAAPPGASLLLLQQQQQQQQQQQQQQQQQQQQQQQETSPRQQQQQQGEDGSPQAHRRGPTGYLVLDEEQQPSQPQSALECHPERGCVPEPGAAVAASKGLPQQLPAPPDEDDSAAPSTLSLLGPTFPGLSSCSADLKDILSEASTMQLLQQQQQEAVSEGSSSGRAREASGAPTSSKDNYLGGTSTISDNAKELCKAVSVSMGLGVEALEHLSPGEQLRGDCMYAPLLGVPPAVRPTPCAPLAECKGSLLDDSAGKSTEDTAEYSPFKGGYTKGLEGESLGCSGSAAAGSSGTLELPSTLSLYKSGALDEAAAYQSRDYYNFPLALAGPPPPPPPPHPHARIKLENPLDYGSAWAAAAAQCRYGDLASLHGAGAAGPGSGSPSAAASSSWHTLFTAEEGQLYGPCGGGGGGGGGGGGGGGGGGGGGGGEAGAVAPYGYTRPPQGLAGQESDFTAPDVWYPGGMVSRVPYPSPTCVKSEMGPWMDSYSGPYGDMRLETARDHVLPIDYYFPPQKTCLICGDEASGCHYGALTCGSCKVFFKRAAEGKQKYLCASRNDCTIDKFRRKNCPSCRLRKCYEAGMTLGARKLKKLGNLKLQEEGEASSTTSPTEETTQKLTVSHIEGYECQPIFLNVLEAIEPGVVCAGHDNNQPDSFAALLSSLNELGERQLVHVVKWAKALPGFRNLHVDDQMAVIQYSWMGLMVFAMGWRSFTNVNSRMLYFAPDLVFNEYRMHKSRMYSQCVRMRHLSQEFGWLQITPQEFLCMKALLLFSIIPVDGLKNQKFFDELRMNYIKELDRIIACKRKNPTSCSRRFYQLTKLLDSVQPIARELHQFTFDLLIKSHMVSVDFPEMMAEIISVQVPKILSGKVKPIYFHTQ
Description: Inhibition of human androgen receptor at 10e-12 to 10e-5 M

## CC1=CC(C)(C)Nc2ccc3c(c21)/C(=C/c1ccsc1)Oc1ccc(F)cc1-3
  IC50: 215 nM

## CC1=CC(C)(C)Nc2ccc3c(c21)/C(=C/c1ccccc1)Oc1c(F)cccc1-3
  IC50: 900 nM

From ChEMBL document CHEMBL1145087 (J Med Chem, 2003)
